Measurements taken from patent publication US6270979A (priority 1998, dated 2001).
Entries after “also recorded” stand apart in the source; their conditions may differ. Where a name gives a salt, the structure may show the parent alone. Read-outs that look alike come from different tables or passages of the source.

How the values were obtained:
[1] = target: opioid μ receptor (Homo sapiens, UniProt P35372); type: cell-based
[2] = target: epitope-tagged μ opioid receptor (EE-μR) (Rattus norvegicus, UniProt P33535); type: cell-based
[3] = target: T1, μ opioid receptor (Rattus norvegicus, UniProt P33535); assay: Receptor recycling through endocytic vesicles; type: cell-based; design: expressed in transfected cells
[4] = target: T1, μ opioid receptor; settings: added acutely, μ and EEμ receptor transfected HEK293 cells
[5] = tested on: Male ICR mice; settings: mouse, in vivo
[6] = tested on: opioid μ receptor; type: cell-based, human
[7] = tested on: Mice; type: in vivo
[8] = tested on: PKC; settings: known; cited from earlier work
[9] = tested on: PKA; settings: known; cited from earlier work
[10] = tested on: cAMP phosphodiesterase; settings: generally recognized; Beavo et al.; cited from earlier work
[11] = tested on: muscarinic m1 receptor mutant m1-E360A; type: cell-based
[12] = tested on: D2 receptor (long splice isoform); assay: D2 receptor cAMP assay in stably transfected HEK293 cells; type: cell-based; settings: for negative antagonism at D2 receptor: preliminary, stably transfected HEK293 cells, quinpirole as agonist
[13] = tested on: opioid μ receptor; settings: prior knowledge; cited from earlier work

epitope-tagged μ opioid receptor (EE-μR), sequence (P33535 whole entry): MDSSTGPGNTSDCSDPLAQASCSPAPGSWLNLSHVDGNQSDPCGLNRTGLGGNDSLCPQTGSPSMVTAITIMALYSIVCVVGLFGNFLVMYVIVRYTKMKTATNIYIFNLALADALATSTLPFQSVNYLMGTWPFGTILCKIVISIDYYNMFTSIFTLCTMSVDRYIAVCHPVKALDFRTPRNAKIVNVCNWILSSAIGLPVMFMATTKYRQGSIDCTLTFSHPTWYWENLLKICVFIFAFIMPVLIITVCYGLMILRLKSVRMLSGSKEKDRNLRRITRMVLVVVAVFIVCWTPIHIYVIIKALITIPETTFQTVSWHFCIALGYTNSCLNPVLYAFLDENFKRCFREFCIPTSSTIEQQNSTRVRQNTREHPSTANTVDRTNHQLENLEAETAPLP
opioid μ receptor (Homo sapiens, UniProt P35372), sequence (P35372 whole entry): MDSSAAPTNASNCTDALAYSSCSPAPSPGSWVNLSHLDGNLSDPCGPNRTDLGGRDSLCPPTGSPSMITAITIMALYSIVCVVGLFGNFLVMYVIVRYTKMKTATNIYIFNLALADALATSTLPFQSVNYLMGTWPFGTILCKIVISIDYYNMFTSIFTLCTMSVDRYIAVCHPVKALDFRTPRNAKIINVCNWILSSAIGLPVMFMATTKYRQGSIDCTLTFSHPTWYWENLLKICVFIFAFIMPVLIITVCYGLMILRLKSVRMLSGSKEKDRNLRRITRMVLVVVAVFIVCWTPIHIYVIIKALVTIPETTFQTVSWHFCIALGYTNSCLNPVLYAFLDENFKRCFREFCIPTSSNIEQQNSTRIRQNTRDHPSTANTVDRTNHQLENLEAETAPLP
T1 sequence (P33535 whole entry): as the sequence (P33535 whole entry) above

With `CC(C)C[C@@H](NC(=O)[C@H](Cc1ccccc1)NC(=O)CNC(=O)[C@@H](C)NC(=O)[C@@H](N)Cc1ccc(O)cc1)C(=O)O` [DADLE] as the compound, how does the “classification of opioid drug (agonist / neutral / negative antagonist)” value [1] read?
The value was “full agonists and are either as effective if not more so than morphine”.

Which “receptor phosphorylation, potency and efficacy relative to morphine” value [2] does the source give for `C[C@@H](NC(=O)[C@@H](N)Cc1ccc(O)cc1)C(=O)NCC(=O)N(C)[C@@H](Cc1ccccc1)C(=O)NCCO` [DAMGO] here?
Its value is “slightly more potent and efficacious than morphine”.

What about the “receptor recycling through endocytic vesicles” value [3] of the same compound?
Its value is “induced massive receptor recycling through endocytic vesicles”.

What about the “classification of opioid drug (agonist / neutral / negative antagonist)” value [1] of the same compound?
Its value is “full agonists and are either as effective if not more so than morphine”.

And the “signaling, potency and efficacy relative to morphine” value [4]?
The value was “slightly more potent and efficacious than morphine”.

For `CC1CNCCN1S(=O)(=O)c1cccc2cnccc12.Cl.Cl` (centres unmarked) [H7, 1-(5-isoquinolinesulfonyl)-2-methylpiperazine dihydrochloride], which “effect on μ receptor (μ*) phosphorylation” value ([2]; dihydrochloride) is on record?
Its value is “strongly inhibits μ receptor phosphorylation; also recorded: inhibited μ* receptor phosphorylation”.

What about the “effect on gross behavior of the animals” value [5] of the same compound?
Its value is “without affecting gross behavior of the animals”.

And the “effect on naloxone induced withdrawal jumping” value [5]?
The value was “strongly suppressed the number of naloxone precipitated jumps”.

What about the “effect on acute depression of cAMP levels by morphine” value [6] of the same compound?
The value was “did not prevent the acute depression of cAMP levels by morphine”.

What about the “effect on spontaneous cAMP overshoot induced by morphine pretreatment” value [6] of the same compound?
The value was “had some effects on the spontaneous cAMP overshoot”.

And the “effect on naloxone cAMP overshoot / formation of μ* when added with morphine pretreatment” value ([6]; dihydrochloride)?
The value was “abolished the naloxone-induced cAMP overshoot; also recorded: completely prevents the formation of μ* receptors”.

What about the “reversal of naloxone cAMP overshoot / μ* activity when added after morphine pretreatment” value ([6]; dihydrochloride) of the same compound?
The value was “rapidly reverses μ* activity; also recorded: completely reversed the naloxone cAMP overshoot”.

And the “analgesia of second morphine dose, after H7” value ([7]; mouse, in vivo)?
Its value is 90±10%.

And the “effect on morphine antinociception” value ([7]; mouse, in vivo)?
The value was “without affecting gross behavior of the animals or morphine antinociception”.

And the “reversal of morphine tolerance” value ([7]; mouse, in vivo, dihydrochloride)?
Its value is “fully reversed morphine tolerance; also recorded: completely reversed tolerance; also recorded: reverse morphine tolerance and dependence in mice”.

What about the “protein kinase inhibition PKC” value [8] of the same compound?
The value was “known to inhibit several protein kinases including PKA and PKC”.

What about the “protein kinase inhibition PKA” value [9] of the same compound?
The value was “known to inhibit several protein kinases including PKA and PKC”.

Which “effect on naloxone cAMP overshoot / formation of μ* when added with morphine pretreatment” value [6] does the source give for `Cl.Cl.NCCNS(=O)(=O)c1cccc2cnccc12` [H9, N-(2-aminoethyl)-5-isoquinolinesulfonamide dihydrochloride] here?
The value was “capable of preventing formation of the constitutively active μ receptor state”.

Which “effect on naloxone cAMP overshoot / formation of μ* when added with morphine pretreatment” value [6] does the source give for `N=C(N)NCCNS(=O)(=O)c1cccc2cnccc12` [HA-1004, N(2-guanidinoethyl)-5-isoquinolinesulfonamide hydrochloride] here?
Its value is “capable of preventing formation of the constitutively active μ receptor state”.

Which “effect on μ receptor (μ*) phosphorylation” value [2] does the source give for `CC(C)Cn1c(=O)n(C)c(=O)c2[nH]cnc21` [IBMX, 3-isobutyl-1-methyl-xanthine] here?
The value was “suppressed μ receptor phosphorylation as observed for H7; also recorded: μ receptor kinase inhibitor; also recorded: inhibited μ* receptor phosphorylation”.

And the “effect on naloxone cAMP overshoot / formation of μ* when added with morphine pretreatment” value [6]?
The value was “suppresses μ* formation; also recorded: capable of preventing formation of the constitutively active μ receptor state”.

And the cAMP phosphodiesterase inhibition [10]?
The cAMP phosphodiesterase inhibition was “cAMP phosphodiesterase inhibitor”.

For `C=CCN1CC[C@]23c4c5ccc(O)c4O[C@H]2[C@@H](O)C=C[C@H]3[C@H]1C5` [Nalorphine], which “classification of opioid drug (agonist / neutral / negative antagonist)” value [1] is on record?
The value was “neutral antagonists”.

What about the “effect on cAMP levels / constitutive activity in morphine pretreated cells” value [1] of the same compound?
The value was “no significant effect on cAMP levels in dependent cells”.

With `CN1[C@@H]2CC[C@H]1C[C@@H](OC(=O)C(CO)c1ccccc1)C2` (some centres unmarked) [atropine] as the compound, how does the “effect on m1-E360A basal activity” value [11] read?
The value was “decreasing effects on m1-E360A basal activity”.

With `COC[C@@H]([C@H](O)[C@H](O)C(=O)NCC[C@H](C)c1nc(/C=C/C[C@@H]2O[C@]3(C[C@@H](O)[C@@H]2C)O[C@H]([C@H](C[C@H](O)[C@H](C)[C@H](O)[C@H](C)/C=C(C)/C(C)=C/C=C/C(C)=C\C#N)OC)[C@H](OP(=O)(O)O)C3(C)C)co1)N(C)C` [calyculin A] as the compound, how does the “effect on m1-E360A basal activity” value ([11]; HEK293 cells) read?
The value was “enhanced the basal activity”.

With `O=C(CCCN1CCC(O)(c2ccc(Cl)cc2)CC1)c1ccc(F)cc1` [haloperidol] as the compound, how does the “negative antagonism at D2 receptor” value [12] read?
The value was “some degree of negative antagonism”.

Which “analgesia of second morphine dose, saline control” value ([7]; 10 mg/kg morphine sulfate 5 hours after 100 mg/kg, 30 minutes after saline) does the source give for `CN1CC[C@]23c4c5ccc(O)c4O[C@H]2[C@@H](O)C=C[C@H]3[C@H]1C5` [morphine] here?
The value was 22±14%.

For `C=CCN1CC[C@]23c4c5ccc(O)c4O[C@H]2C(=O)CC[C@@]3(O)[C@H]1C5` [naloxone], which “reversal of morphine dependence” value [5] is on record?
The value was “does not reverse the dependent state in vivo”.

What about the withdrawal jumps [5] of the same compound?
The withdrawal jumps was 77±20 jumps.

For `C=C1[C@@H](O)[C@@H]2O[C@]3(CC[C@H](/C=C/[C@@H](C)[C@@H]4CC(C)=C[C@@]5(O[C@H](C[C@@](C)(O)C(=O)O)CC[C@H]5O)O4)O3)CC[C@H]2O[C@@H]1[C@@H](O)C[C@H](C)[C@H]1O[C@@]2(CCCCO2)CC[C@H]1C` [okadaic acid], which “effect of phosphatase inhibitor on enhancing μ*” value [6] is on record?
The value was “ineffective in enhancing μ*”.

With `CN1[C@@H]2C[C@@H](OC(=O)[C@H](CO)c3ccccc3)C[C@H]1[C@@H]1O[C@@H]12` [scopolamine] as the compound, how does the “classification at m1-E360A” value [11] read?
Its value is “negative antagonists”.

What about the “effect on m1-E360A basal activity” value [11] of the same compound?
Its value is “decreasing effects on m1-E360A basal activity”.

With `O=C(CCCN1CCC2(CC1)C(=O)NCN2c1ccccc1)c1ccc(F)cc1` [spiperone] as the compound, how does the “effect on cAMP levels in absence of agonist” value ([12]; incubation in absence of agonist, relative to control) read?
The value was “decreased cAMP levels relative to control”.

What about the “negative antagonism at D2 receptor” value [12] of the same compound?
Its value is “some degree of negative antagonism”.

For `CCN1CCCC1CNC(=O)c1cc(S(N)(=O)=O)ccc1OC` (centres unmarked) [sulpiride], which “negative antagonism at D2 receptor” value [12] is on record?
The value was “some degree of negative antagonism”.

With `OCCN1CCN(CCCN2c3ccccc3Sc3ccc(C(F)(F)F)cc32)CC1` [thuphenazine] as the compound, how does the “negative antagonism at D2 receptor” value [12] read?
Its value is “some degree of negative antagonism”.

With `CN1CCN(CCCN2c3ccccc3Sc3ccc(C(F)(F)F)cc32)CC1` [trifluoperatine] as the compound, how does the “negative antagonism at D2 receptor” value [12] read?
Its value is “some degree of negative antagonism”.

Which results are given for “D-Phe-Cys-Tyr-D-Trp-Arg-Thr-Pen-Thr-NH2 [CTOP]”?
blockade of acute effects of morphine (previously known) [13]: fully block the acute effects of morphine; classification of opioid drug (agonist / neutral / negative antagonist) [1]: neutral (null) antagonist; also recorded: neutral antagonists; effect on cAMP levels / constitutive activity in morphine pretreated cells [1]: not to reverse the constitutive activity of the μ receptor state; also recorded: does not act as an inverse agonist; also recorded: no effect on the constitutively active μ receptor state; also recorded: do not affect cAMP levels; also recorded: no significant effect on cAMP levels in dependent cells; effect on naloxone cAMP overshoot when combined with naloxone [1]: block the inverse agonist effects of naloxone; also recorded: Reversal of the naloxone cAMP overshoot; effect on acute depression of cAMP levels by morphine [6]: block the acute effects of morphine; also recorded: reversed the reduction of the cAMP level caused by morphine

For “D-Phe-Cys-Tyr-D-Trp-Arg-Thr-Pen-ThrNH2 [CTAP]”, which withdrawal jumps [5] is on record?
The withdrawal jumps was 32±12 jumps.
